# Measurements: patent US20240209423A1, “METHODS AND COMPOSITIONS FOR REDUCING AUTOFLUORESCENCE” (Advanced Cell Diagnostics, Inc., priority 2021, published 2024)
# Legend:
# [1] = system: tissue autofluorescence in FFPE mouse multi-tissue arrays; assay: Quinone compounds tested for tissue autofluorescence quenching, FFPE mouse multi-tissue arrays; conditions: incubated for 30 min; compared with 4×SSC untreated control slide
# Experimental: Multiple quinone compounds were tested for tissue autofluorescence quenching effects on FFPE mouse multi-tissue arrays. After bake, deparaffinization, and pretreatment to permeabilize the tissue, 4×SSC or quinone derivative was applied to the tissue and incubated for 30 min. After washing DAPI was applied to stain the nucleus. Slides were then mounted with prolong gold and scanned using the same microscopic settings. A reduction in autofluorescence was determined by comparing the fluorescence on the quinone derivative treated slide with a 4×SSC untreated control slide.
# [2] = system: autofluorescence in FFPE Human Brain Tissues; assay: Quenching of endogenous and lipofuscin autofluorescence, unstained FFPE human brain tissues; conditions: 100 mM in 4×SSC
# Experimental: The present methods are effective at partially reducing autofluorescence caused by lipofuscin pigment granules that are most commonly found in brain tissues. FFPE Human Brain Tissues were treated with or without pBQ and imaged without staining to reveal tissue endogenous autofluorescence.
# [3] = Maximum solubility in 4×SSC; format: physicochemical; conditions: 4×SSC buffer, aqueous buffer
# [4] = system: autofluorescence in non-human primate fixed frozen liver tissue; assay: RNAscope HiPlex assay with p-benzoquinone treatment, non-human primate fixed frozen liver tissue; conditions: 100 mM in 4×SSC, vs 4×SSC alone
# [5] = system: human head and neck FFPE tissue; assay: CD20 immunofluorescence after p-benzoquinone treatment, human head and neck FFPE tissue; conditions: 40 mM in 4×SSC, 30 min, CD20, Opal 520
# Experimental: CD20 was detected in human head and neck FFPE tissue. After bake, deparaffmization, and pretreatment to permeabilize the tissue, 4×SSC (untreated control) or p-benzoquinone (pBQ) (40 mM in 4×SSC) was applied onto the tissue and incubated for 30 min. After washing, mouse anti-CD20 primary antibody (Leica Ready to Use) was applied for 1 hour at room temperature (RT). Signal was amplified by rabbit anti-mouse post primary antibody (Leica Ready to Use) and goat anti-rabbit Alexa 488 secondary antibody (Leica Ready to Use) conjugated to HRP. Signal was detected using Opal 520 (Akoya Bio) diluted 1:500 in TSA buffer. The images were taken with the same exposure settings.
# [6] = system: mouse FFPE liver tissue; assay: Dye compatibility with p-benzoquinone treatment, RNAscope, mouse FFPE liver tissue; conditions: p-benzoquinone applied after Amp 3
# Description: To evaluate the compatibility of certain dyes, targets were detected in mouse FFPE liver tissue, using the p-benzoquinone treatment step. […] Experimentally, these targets were detected using RNAscope® double Z probes and signals were amplified using an RNAscope® amplification system (Amp 1, 2, 3), with p-benzoquinone applied after Amp 3.
# [7] = system: mouse fresh frozen tissue; assay: RNAscope HiPlex assay with p-benzoquinone treatment, mouse fresh frozen tissue; conditions: 100 mM in 4×SSC
# Experimental: (§1) RNAscope® HiPlex assays were conducted to detect four positive control genes in mouse FFPE kidney tissue. ZZ probes for 12 different targets were hybridized together to a mouse multi-tissue array prepared as formalin-fixed paraffin embedded sections, and the hybridization signals were amplified together by successive rounds of hybridization with the preamplifier and amplifier sequences. Autofluorescence quenching was performed by application of p-benzoquinone (100 mM in 4× Saline-Sodium Citrate (SSC)) onto the slides for 30 minutes at room temperature, followed by detection of four (Ppib, Ubc, Polr2a and Hprt1) of the 12 target genes using fluorescent label probes corresponding to the signal amplification systems assigned to these four target probes and the fluorophores Alexa 488, DyLight 550, DyLight 650 and Alexa 750 respectively (bottom panels). On a separate slide, 4×SSC buffer alone was used as the untreated control. Nuclei were stained with DAPI.
# Yet another similar experiment was conducted using mouse fresh frozen tissue, with detection of four of the twelve targets (Polr2a, Ppib, Ubc, and Hprt1).
# [8] = system: autofluorescence in mouse FFPE kidney tissue; assay: RNAscope HiPlex assay with p-benzoquinone autofluorescence quenching, mouse FFPE kidney tissue; conditions: 100 mM in 4× SSC, 30 minutes at room temperature, vs 4×SSC control
# Experimental: as §1
# [9] = system: autofluorescence in human FFPE lung cancer tissue; assay: RNAscope HiPlex assay with p-benzoquinone treatment, human FFPE lung cancer tissue; conditions: 100 mM in 4×SSC, vs 4×SSC alone
# Experimental: as §1
# [10] = system: FFPE mouse brain; assay: Antibody compatibility with pBQ treatment (immunofluorescence), FFPE mouse brain; conditions: NeuN, Chicken anti NeuN 1:500, Goat anti-chicken AF555 1:500
# Experimental: (§2) CD20 was detected in human head and neck FFPE tissue. After bake, deparaffmization, and pretreatment to permeabilize the tissue, 4×SSC (untreated control) or p-benzoquinone (pBQ) (40 mM in 4×SSC) was applied onto the tissue and incubated for 30 min. After washing, mouse anti-CD20 primary antibody (Leica Ready to Use) was applied for 1 hour at room temperature (RT). Signal was amplified by rabbit anti-mouse post primary antibody (Leica Ready to Use) and goat anti-rabbit […] secondary antibody (Leica Ready to Use) conjugated to HRP. Signal was detected using Opal 520 (Akoya Bio) diluted 1:500 in TSA buffer. The images were taken with the same exposure settings. The brightness of the pBQ treated slide was increased by two-fold to achieve optimal display.
# (§3) Additional antibodies were tested for compatibility with p-benzoquinone treatment, using the same general experimental method as described above.
# [11] = system: FFPE mouse multi tissue array; assay: Quinone treatment condition optimization, RNAscope HiPlex, FFPE mouse multi tissue array
# [12] = system: FFPE human tumor microarray; assay: Quinone treatment condition optimization, RNAscope HiPlex, FFPE human tumor microarray; set-up: key to the marks not given beside the values; conditions: 100 mM, 30 min, Polr2a, PPIB, UBC, Hprt1
# Experimental: Major factors tested for p-benzoquinone were chemical concentration, incubation time, and fluorescent dyes.
# [13] = system: hTMAc; assay: Antibody compatibility with pBQ treatment (immunofluorescence), hTMAc; conditions: CD3, Leica mouse anti-CD3 1:200, Goat anti-rabbit AF488 1:500
# Experimental: as §2, §3
smiles,measurement,setting,value
"COC1=CC(=O)C(OC)=CC1=O [2,5-Dimethoxy-(1,4)-benzoquinone]",Autofluorescence quenching effect,[1],No
"O=C1C=C(Cl)C(=O)C(Cl)=C1 [2,6-Dichloro-1,4-benzoquinone]",Autofluorescence quenching effect,[1],Yes
O=C1C=CC(=O)C=C1 [p-benzoquinone],effect on lipofuscin autofluorescence (dot-like and clusters of fluorescence),[2],partially quenches lipofuscin autofluorescence
same,effect on lipofuscin autofluorescence (dot-like and clusters of fluorescence),[2]; listed as p-Benzoquinone,reduced but not completely eliminated
same,effect on fixation induced haze background,[2]; vs no pBQ control,greatly reduced
same,solubility,[3],100 mM
same,effect on tissue autofluorescence,[4],reduced autofluorescence
same,compatibility of autofluorescence quenching treatment with immunofluorescence,[5],compatible with immunofluorescence assays
same,target detection with ATTO dye label probes after p-benzoquinone treatment,"[6]; ATTO 550 (UBC), ATTO 647N (POLR2A)",did not lead to successful detection
same,target detection with Dylight label probes after p-benzoquinone treatment,"[6]; Dylight 550 (UBC), Dylight 650 (POLR2A)",successfully detected
same,compatibility with RNA in situ hybridization assay,[7],compatible
same,effect on tissue autofluorescence,[8],effectively reduced autofluorescence
same,Autofluorescence quenching effect,[1],Yes
same,effect on tissue autofluorescence,[9],reduced autofluorescence
same,IF Signal compared to control,[10],Weaker
same,Signal/noise ratio,"[11]; 2 mM, overnight, Polr2a, PPIB, UBC, Hprt1",+++
same,Signal/noise ratio,"[11]; 20 mM, 30 min",−−+
same,Signal/noise ratio,"[11]; 100 mM, 30 min",+++
same,Signal/noise ratio,"[11]; 200 mM, 30 min",+++
same,Signal/noise ratio,[11]; Fluorescent dyes: Alexa dyes,+++
same,Signal/noise ratio,[11]; Fluorescent dyes: Dylight dyes,+++
same,Signal/noise ratio,[12],+++
same,IF Signal compared to control,[13],Weaker
"O=C1C=C(Cl)C(=O)C=C1Cl [2,5-Dichloro-1,4-benzoquinone]",Autofluorescence quenching effect,[1],Yes
"O.O=C1C(O)=C(O)C(=O)C(O)=C1O [Tetrahydroxy-1,4-quinone hydrate]",Autofluorescence quenching effect,[1],No
"COC1=CC(=O)C=C(OC)C1=O [2,6-Dimethoxy-1,4-benzoquinone]",Autofluorescence quenching effect,[1],No
"COC1=CC(=O)C=CC1=O [2-methoxybenzo-1,4-quinone]",Autofluorescence quenching effect,[1],Yes
"CC1=CC(=O)C=C(C)C1=O [2,6-Dimethylbenzoquinone]",Autofluorescence quenching effect,[1],No
CC1=CC(=O)C=CC1=O [Methyl-p-benzoquinone],Autofluorescence quenching effect,[1],No
"O=C1C=CC(=O)C(Cl)=C1 [2-Chloro-1,4-benzoquinone]",Autofluorescence quenching effect,[1],Yes
Oc1ccc(O)cc1 [Hydroquinone],Autofluorescence quenching effect,[1],Yes
same,Signal/noise ratio,"[11]; 20 mM, 4 d, with light exposure",−−+
same,Signal/noise ratio,"[11]; 20 mM, 6 d, with light exposure",−−+
same,Signal/noise ratio,"[11]; 200 mM, 2 d, with light exposure",−−+
same,Signal/noise ratio,"[11]; 200 mM, 4 d, with light exposure",−++
same,Signal/noise ratio,"[11]; 200 mM, 5 d, with light exposure",−++
same,Signal/noise ratio,"[11]; 200 mM, 6 d, with light exposure",−++
same,Signal/noise ratio,"[11]; Buffer 2x SSC (20 mM, 4 d, with light exposure)",−−+
same,Signal/noise ratio,"[11]; Buffer 4x SSC (20 mM, 4 d, with light exposure)",−−+
same,Signal/noise ratio,"[11]; Buffer Decal (20 mM, 4 d, with light exposure)",−−+
same,Signal/noise ratio,"[11]; Buffer RNAase later/inhibitor (20 mM, 4 d, with light exposure)",−−+
same,Signal/noise ratio,"[11]; Light exposure Yes (200 mM, 2 d)",−−+
same,Signal/noise ratio,"[11]; Workflow position After Amp1 (20 mM, 2 d, with light exposure)",−−+
same,Signal/noise ratio,"[11]; Workflow position After Amp2 (20 mM, 2 d, with light exposure)",−−+
same,Signal/noise ratio,"[11]; Workflow position After Amp3 (20 mM, 2 d, with light exposure)",−++
